From ChEMBL document CHEMBL1154976 (Bioorg Med Chem Lett, 2010)

How the values were obtained:
[1] = organism: Homo sapiens; experiment: Selectivity ratio of Ki for human delta opioid receptor to Ki for human mu opioid receptor
[2] = organism: Homo sapiens; experiment: Selectivity ratio of Ki for human delta opioid receptor to Ki for human kappa opioid receptor
[3] = target: Kappa-type opioid receptor (Homo sapiens, UniProt P41145); experiment: Displacement of [3H]U69,593 from human kappa opioid receptor expressed in CHO cell membranes after 60 mins by scintillation counting
Chain of Kappa-type opioid receptor (P41145 whole entry): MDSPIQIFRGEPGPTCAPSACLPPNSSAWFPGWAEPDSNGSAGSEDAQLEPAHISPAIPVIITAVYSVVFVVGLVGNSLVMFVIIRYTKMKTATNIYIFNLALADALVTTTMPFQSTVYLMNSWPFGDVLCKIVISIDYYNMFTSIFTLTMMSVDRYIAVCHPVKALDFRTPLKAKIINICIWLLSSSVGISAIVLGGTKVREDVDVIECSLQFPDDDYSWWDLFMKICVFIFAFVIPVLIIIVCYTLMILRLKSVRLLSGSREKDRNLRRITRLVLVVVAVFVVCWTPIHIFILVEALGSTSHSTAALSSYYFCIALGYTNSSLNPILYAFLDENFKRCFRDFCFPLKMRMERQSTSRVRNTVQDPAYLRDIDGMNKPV

[4] = target: Mu-type opioid receptor (Homo sapiens, UniProt P35372); experiment: Displacement of [3H]DAMGO from human mu opioid receptor expressed in CHO cell membranes after 60 mins by scintillation counting
Chain of Mu-type opioid receptor (P35372 whole entry): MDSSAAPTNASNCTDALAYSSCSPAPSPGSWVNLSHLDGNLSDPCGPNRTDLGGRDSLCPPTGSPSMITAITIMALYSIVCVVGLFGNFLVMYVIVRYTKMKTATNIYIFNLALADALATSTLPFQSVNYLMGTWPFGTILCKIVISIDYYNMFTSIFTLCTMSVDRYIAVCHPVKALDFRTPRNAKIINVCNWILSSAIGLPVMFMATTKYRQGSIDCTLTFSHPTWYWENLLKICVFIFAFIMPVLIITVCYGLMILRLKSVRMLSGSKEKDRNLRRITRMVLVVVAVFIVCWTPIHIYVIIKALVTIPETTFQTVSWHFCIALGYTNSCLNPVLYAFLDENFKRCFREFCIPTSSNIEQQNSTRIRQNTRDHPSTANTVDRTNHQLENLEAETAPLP

[5] = target: Delta-type opioid receptor (Homo sapiens, UniProt P41143); experiment: Displacement of [3H]naltrindole from human delta opioid receptor expressed in CHO cell membranes after 3 hrs by scintillation counting
Chain of Delta-type opioid receptor (P41143 whole entry): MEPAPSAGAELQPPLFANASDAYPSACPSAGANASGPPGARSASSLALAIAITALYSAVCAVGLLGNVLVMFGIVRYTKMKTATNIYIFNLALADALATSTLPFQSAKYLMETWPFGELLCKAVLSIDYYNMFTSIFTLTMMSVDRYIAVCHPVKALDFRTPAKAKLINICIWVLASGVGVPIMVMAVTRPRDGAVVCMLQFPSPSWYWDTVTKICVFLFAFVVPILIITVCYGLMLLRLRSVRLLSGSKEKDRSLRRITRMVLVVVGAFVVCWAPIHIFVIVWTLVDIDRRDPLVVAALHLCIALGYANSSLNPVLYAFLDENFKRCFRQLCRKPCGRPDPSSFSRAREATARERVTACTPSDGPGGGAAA

[6] = organism: Homo sapiens; experiment: Selectivity ratio of Ki for human mu opioid receptor to Ki for human kappa opioid receptor
[7] = organism: Homo sapiens; experiment: Selectivity ratio of Ki for human kappa opioid receptor to Ki for human mu opioid receptor

| Compound | Ratio Ki [1] | Ratio Ki [2] | Ki [3] | Ki [4] | Ki [5] | Ratio Ki [6] | Ratio Ki [7] |
| --- | --- | --- | --- | --- | --- | --- | --- |
| CCCCCCCCCC(=O)Oc1ccc2c(c1)[C@@]13CCCC[C@H]1[C@@H](C2)N(CC1CCC1)CC3 | 100 | 100 | 0.2 nM | 0.21 nM | 20 nM | – | – |
| OC(CCCCCC(O)COc1ccc2c(c1)[C@@]13CCCC[C@H]1[C@@H](C2)N(CC1CCC1)CC3)COc1ccc2c(c1)[C@@]13CCCC[C@H]1[C@@H](C2)N(CC1CCC1)CC3 (stereo partly specified) | – | 25 | 3.9 nM | 4.8 nM | 99 nM | 1.2 | – |
| OC(CCCCC(O)COc1ccc2c(c1)[C@@]13CCCC[C@H]1[C@@H](C2)N(CC1CCC1)CC3)COc1ccc2c(c1)[C@@]13CCCC[C@H]1[C@@H](C2)N(CC1CCC1)CC3 (stereo partly specified) | 23 | 23 | 3.3 nM | 3.2 nM | 74 nM | – | – |
| OC(CCC(O)COc1ccc2c(c1)[C@@]13CCCC[C@H]1[C@@H](C2)N(CC1CCC1)CC3)COc1ccc2c(c1)[C@@]13CCCC[C@H]1[C@@H](C2)N(CC1CCC1)CC3 (stereo partly specified) | – | 35 | 12 nM | 17 nM | 420 nM | 1.4 | – |
| OC(CCCCCCC(O)COc1ccc2c(c1)[C@@]13CCCC[C@H]1[C@@H](C2)N(CC1CCC1)CC3)COc1ccc2c(c1)[C@@]13CCCC[C@H]1[C@@H](C2)N(CC1CCC1)CC3 (stereo partly specified) | – | 19 | 1.4 nM | 2.4 nM | 27 nM | 1.7 | – |
| c1cc2c(cc1OCCCCCCCCCCOc1ccc3c(c1)[C@@]14CCCC[C@H]1[C@@H](C3)N(CC1CCC1)CC4)[C@@]13CCCC[C@H]1[C@@H](C2)N(CC1CCC1)CC3 | 38 | – | – | – | – | – | 1.8 |
| OC(COc1ccc2c(c1)[C@@]13CCCC[C@H]1[C@@H](C2)N(CC1CCC1)CC3)COc1ccc2c(c1)[C@@]13CCCC[C@H]1[C@@H](C2)N(CC1CCC1)CC3 | 39 | 39 | 0.99 nM | 0.95 nM | 37 nM | – | – |
| OC(COc1ccc2c(c1)[C@@]13CCCC[C@H]1[C@@H](C2)N(CC1CCC1)CC3)CC(O)COc1ccc2c(c1)[C@@]13CCCC[C@H]1[C@@H](C2)N(CC1CCC1)CC3 (stereo partly specified) | – | 194 | 0.17 nM | 1.2 nM | 33 nM | 7 | – |
| c1cc2c(cc1OCCCOc1ccc3c(c1)[C@@]14CCCC[C@H]1[C@@H](C3)N(CC1CCC1)CC4)[C@@]13CCCC[C@H]1[C@@H](C2)N(CC1CCC1)CC3 | – | 29 | 6.2 nM | 7.1 nM | 180 nM | 1.1 | – |
| c1cc2c(cc1OCCCCOc1ccc3c(c1)[C@@]14CCCC[C@H]1[C@@H](C3)N(CC1CCC1)CC4)[C@@]13CCCC[C@H]1[C@@H](C2)N(CC1CCC1)CC3 | – | 40 | – | – | – | 1.6 | – |
| CCCCCCCCC(O)COc1ccc2c(c1)[C@@]13CCCC[C@H]1[C@@H](C2)N(CC1CCC1)CC3 (stereo partly specified) | 7 | – | 8.3 nM | 7.4 nM | 52 nM | – | 1.1 |
| OC(COc1ccc(Cc2ccc(OCC(O)COc3ccc4c(c3)[C@@]35CCCC[C@H]3[C@@H](C4)N(CC3CCC3)CC5)cc2)cc1)COc1ccc2c(c1)[C@@]13CCCC[C@H]1[C@@H](C2)N(CC1CCC1)CC3 (stereo partly specified) | 121 | – | 0.34 nM | 0.24 nM | 29 nM | – | 1.4 |
| CCCCCCCCCCOc1ccc2c(c1)[C@@]13CCCC[C@H]1[C@@H](C2)N(CC1CCC1)CC3 | – | – | – | 70 nM | – | 1.3 | – |
| OC(CCCC(O)COc1ccc2c(c1)[C@@]13CCCC[C@H]1[C@@H](C2)N(CC1CCC1)CC3)COc1ccc2c(c1)[C@@]13CCCC[C@H]1[C@@H](C2)N(CC1CCC1)CC3 (stereo partly specified) | – | 16 | 9.8 nM | 12 nM | 160 nM | 1.2 | – |
| OC(COc1ccccc1)COc1ccc2c(c1)[C@@]13CCCC[C@H]1[C@@H](C2)N(CC1CCC1)CC3 (stereo partly specified) | 13 | – | 22 nM | 6.5 nM | 86 nM | – | 13 |
| c1cc2c(cc1OCC1CO1)[C@@]13CCCC[C@H]1[C@@H](C2)N(CC1CCC1)CC3 (stereo partly specified) | 27 | – | 36 nM | 7.3 nM | 200 nM | – | 5 |
